Laboratory results as given in patent publication US20110152091A1, “Herbicidal Compositions Comprising Flufenacet” (BAYER CROPSCIENCE AG, priority 2009, published 2011).

Assays:
Assay type in all cases: in vivo
[1] = system: Hordeum vulgare, summer barley (HORVS); assay: Greenhouse trial: PO application, crop plant (test methods 2 and 5); details: g of AS/ha: A 240, B 120, C 140, mixture 240 + 120 + 140
Experimental: (§1) In the standard design of the test, seeds of various broad-leaved weed and weed grass biotypes (origins) were sown in a 8-13 cm diameter pot filled with natural soil of a standard field soil (loamy silt; non-sterile) and covered with a covering soil layer of about 1 cm. The pots were then cultivated in a greenhouse (12-16 h of light, temperature day 20-22° C., night 15-18° C.) until the time of application. The pots were treated on a laboratory track sprayer with spray liquors comprising the compositions according to the invention, mixtures of the prior art or components used individually. Application of the active compounds or active compound combinations formulated as WG, WP, EC or otherwise was carried out at the appropriate growth stages of the plants. The application rate for the spray application was 100-600 l of water/ha. After the treatment, the plants were returned to the greenhouses.
(§2) About 3 weeks after the application, the soil action or/and foliar action was assessed visually according to a scale of 0-100% in comparison to an untreated comparative group: 0%=no noticeable effect compared to the untreated comparative group; 100%=full effect compared to the untreated comparative group.
(notes: the term “seeds” also includes vegetative propagation forms such as, for example, rhizome pieces; abbreviations used: h light=hours of illumination, g of AS/ha=gram of active substance per hectare, l/ha=liter per hectare, S=sensitive, R=resistant) • 1. Pre-emergence action against weeds: seeds of various broad-leaved weed and weed grass biotypes (origins) were sown in a 8-13 cm diameter pot filled with natural soil of a standard field soil (loamy silt; non-sterile) and covered with a covering soil layer of about 1 cm. The pots were then cultivated in a greenhouse (12-16 h of light, temperature day 20-22° C., night 15-18° C.) until the time of application. […]

[2] = system: Hordeum vulgare, summer barley (HORVS); assay: Greenhouse trial: different sowing depths on PE application, crop plant (test method 9); details: g of AS/ha: A 90, B 90, C 140, mixture 90 + 90 + 140
Experimental: as §1, §2
(§3) (notes: the term “seeds” also includes vegetative propagation forms such as, for example, rhizome pieces; abbreviations used: h light=hours of illumination, g of AS/ha=gram of active substance per hectare, l/ha=liter per hectare, S=sensitive, R=resistant) • 1. Pre-emergence action against weeds: seeds of various broad-leaved weed and weed grass biotypes (origins) were sown in a 8-13 cm diameter pot filled with natural soil of a standard field soil (loamy silt; non-sterile) and covered with a covering soil layer of about 1 cm. The pots were then cultivated in a greenhouse (12-16 h of light, temperature day 20-22° C., night 15-18° C.) until the time of application. The pots were treated at the BBCH stage 00-10 of the seeds/plants on a laboratory track sprayer with spray liquors comprising the compositions according to the invention, mixtures or components used individually, as WG, WP, EC or other formulations. The application rate for the spray application was 100-600 l of water/ha. After the treatment, the plants were returned to the greenhouses and, when required, treated with fertilizer and watered. • 2. Post-emergence action against weeds: seeds of various broad-leaved weed and weed grass biotypes (origins) were sown in a 8-13 cm diameter pot filled with natural soil of a standard field soil (loamy silt; non-sterile) and covered with a covering soil layer of about 1 cm. The pots were then cultivated in a greenhouse (12-16 h of light, temperature day 20-22° C., night 15-18° C.) until the time of application. The pots were treated at various BBCH stages between 11-25 of the seeds/plants, i.e. generally between two to three weeks after the start of the cultivation, on a laboratory track sprayer with spray liquors comprising the compositions according to the invention, mixtures or components used individually, as WG, WP, EC or other formulations. The application rate for the spray application was 100-600 l of water/ha. After the treatment, the plants were returned to the greenhouses and, when required, treated with fertilizer and watered. • 3. Pre-emergence action against weeds with and without incorporation of active compound: seeds of various broad-leaved weed and weed grass biotypes (origins) were sown in a 8-13 cm diameter pot filled with natural soil of a standard field soil (loamy silt; non-sterile). […]

Avena fatua (AVEFA) [3] = assay: Greenhouse trial: different soil pH values on PE application (test method 11)
Experimental: as §1, §2, §3

Stellaria media (STEME) [4] = assay: Greenhouse trial: PE soil application vs incorporation into the soil (test methods 1, 3 and 4); details: PE application; g of AS/ha: A 75, B 60, C 70, mixture 75 + 60 + 70
Experimental: as §1, §2, §3

Poa annua (POAAN) = assay: as above; details: g of AS/ha: A 75, B 60, C 70, mixture 75 + 60 + 70
Experimental: as §1, §2, §3

Stellaria media (STEME) [5] = assay: Greenhouse trial: different soil types (test method 7); details: g of AS/ha: A 90, B 90, C 140, mixture 90 + 90 + 140
Experimental: as §1, §2, §3

[6] = system: Matricaria chamomilla (MATCH); assay: as above; details: IU soil; g of AS/ha: A 90, B 90, C 140, mixture 90 + 90 + 140
Experimental: as §1, §2, §3

[7] = system: Triticum aestivum, winter wheat (TRZAW); assay: Greenhouse trial: pre-sowing method vs PE application, crop plant (test method 6); details: g of AS/ha: A 90, B 90, C 140, mixture 90 + 90 + 140
Experimental: as §1, §2, §3

Lolium perenne (LOLPE) = assay: Greenhouse trial: pre-sowing method vs PE application (test method 6); details: PE application; g of AS/ha: A 90, B 90, C 140, mixture 90 + 90 + 140
Experimental: as §1, §2, §3

Avena fatua (AVEFA) [8] = assay: as above; details: PE application; g of AS/ha: A 90, B 90, C 140, mixture 90 + 90 + 140
Experimental: as §1, §2, §3

[9] = system: Hordeum vulgare, summer barley (HORVS); assay: Greenhouse trial: different soil types, crop plant (test method 7); details: g of AS/ha: A 90, B 90, C 140, mixture 90 + 90 + 140
Experimental: as §1, §2, §3

[10] = system: Hordeum vulgare, summer barley (HORVS); assay: Greenhouse trial: different soil pH values on PE application, crop plant (test method 11)
Experimental: as §1, §2, §3

[11] = system: Apera Spica-venti (APESV); assay: Greenhouse trial: PO application (test methods 2 and 5); details: g of AS/ha: A 240, B 120, C 140, mixture 240 + 120 + 140
Experimental: as §1
as §2, with “group. […]” for “group.”

[12] = system: Triticum aestivum, winter wheat (TRZAW); assay: Greenhouse trial: PE soil application vs incorporation into the soil, crop plant (test methods 1, 3 and 4); details: g of AS/ha: A 75, B 60, C 70, mixture 75 + 60 + 70
Experimental: as §1, §2, §3

[13] = soil pH 7.4, g of AS/ha: A 90, B 90, C 140, mixture 90 + 90 + 140
[14] = soil pH 8.4, g of AS/ha: A 90, B 90, C 140, mixture 90 + 90 + 140

Structure (SMILES): CC(C)N(C(=O)COc1nnc(C(F)(F)F)s1)c1ccc(F)cc1 [(A) flufenacet, N-(4-fluorophenyl)-N-(1-methylethyl)-2-[[5-(trifluoromethyl)-1,3,4-thiadiazol-2-yl]oxy]acetamide]
- activity HORVS (visual, scale 0-100%) [1]: 60%
- activity HORVS 5 mm (visual, scale 0-100%) ([2]; Sowing depth 5 mm): 30%
- activity HORVS 20 mm (visual, scale 0-100%) ([2]; Sowing depth 20 mm): 20%
- activity AVEFA pH 7.4 (visual, scale 0-100%) (Avena fatua (AVEFA) [3]; [13]): 80%
- activity AVEFA pH 8.4 (visual, scale 0-100%) (Avena fatua (AVEFA) [3]; [14]): 55%
- activity STEME (visual, scale 0-100%) (Stellaria media (STEME) [4]): 0%
- activity POAAN (visual, scale 0-100%) (Poa annua (POAAN); Incorporation into the soil): 90%
- activity POAAN (visual, scale 0-100%) (Poa annua (POAAN); PE application): 65%
- activity STEME IU soil (visual, scale 0-100%) (Stellaria media (STEME) [5]; IU soil): 0%
- activity STEME IU/EC73 soil (visual, scale 0-100%) (Stellaria media (STEME) [5]; IU/EC73 soil): 0%
- activity MATCH IU soil (visual, scale 0-100%) [6]: 28%
- activity TRZAW (visual, scale 0-100%) ([7]; Application 7 days prior to sowing): 60%
- activity TRZAW (visual, scale 0-100%) ([7]; PE application): 30%
- activity LOLPE (visual, scale 0-100%) (Lolium perenne (LOLPE)): 90%
- activity AVEFA (visual, scale 0-100%) (Avena fatua (AVEFA) [8]): 80%
- activity HORVS IU soil (visual, scale 0-100%) ([9]; IU soil): 10%
- activity HORVS IU/EC73 soil (visual, scale 0-100%) ([9]; IU/EC73 soil): 0%
- activity HORVS pH 7.4 (visual, scale 0-100%) [10, 13]: 10%
- activity HORVS pH 8.4 (visual, scale 0-100%) [10, 14]: 10%
- activity APESV (visual, scale 0-100%) [11]: 65%
- activity TRZAW (visual, scale 0-100%) ([12]; Incorporation into the soil): 60%
- activity TRZAW (visual, scale 0-100%) ([12]; PE application): 20%
